In publication PMC9365363 (Clinical Cancer Research, 2022):
pIC50: −log10 of the molar value. Read-outs that look alike come from different tables or passages of the source.

Key:
[1] = molecular target: PDGFRA (Homo sapiens, UniProt P16234); format: in vivo; settings: known sunitinib target; 4 sunitinib-treated, 7 control tumors
[2] = tested on: tyrosine phosphoproteome of GBM tumors; format: in vivo, human; settings: 4 sunitinib-treated versus 7 control GBM tumors, cut-off P < 0.05
[3] = molecular target: PDGFRB (Homo sapiens, UniProt P09619); format: in vivo; settings: known sunitinib target; 4 sunitinib-treated, 7 control tumors
PDGFRB, sequence (P09619 33-1106): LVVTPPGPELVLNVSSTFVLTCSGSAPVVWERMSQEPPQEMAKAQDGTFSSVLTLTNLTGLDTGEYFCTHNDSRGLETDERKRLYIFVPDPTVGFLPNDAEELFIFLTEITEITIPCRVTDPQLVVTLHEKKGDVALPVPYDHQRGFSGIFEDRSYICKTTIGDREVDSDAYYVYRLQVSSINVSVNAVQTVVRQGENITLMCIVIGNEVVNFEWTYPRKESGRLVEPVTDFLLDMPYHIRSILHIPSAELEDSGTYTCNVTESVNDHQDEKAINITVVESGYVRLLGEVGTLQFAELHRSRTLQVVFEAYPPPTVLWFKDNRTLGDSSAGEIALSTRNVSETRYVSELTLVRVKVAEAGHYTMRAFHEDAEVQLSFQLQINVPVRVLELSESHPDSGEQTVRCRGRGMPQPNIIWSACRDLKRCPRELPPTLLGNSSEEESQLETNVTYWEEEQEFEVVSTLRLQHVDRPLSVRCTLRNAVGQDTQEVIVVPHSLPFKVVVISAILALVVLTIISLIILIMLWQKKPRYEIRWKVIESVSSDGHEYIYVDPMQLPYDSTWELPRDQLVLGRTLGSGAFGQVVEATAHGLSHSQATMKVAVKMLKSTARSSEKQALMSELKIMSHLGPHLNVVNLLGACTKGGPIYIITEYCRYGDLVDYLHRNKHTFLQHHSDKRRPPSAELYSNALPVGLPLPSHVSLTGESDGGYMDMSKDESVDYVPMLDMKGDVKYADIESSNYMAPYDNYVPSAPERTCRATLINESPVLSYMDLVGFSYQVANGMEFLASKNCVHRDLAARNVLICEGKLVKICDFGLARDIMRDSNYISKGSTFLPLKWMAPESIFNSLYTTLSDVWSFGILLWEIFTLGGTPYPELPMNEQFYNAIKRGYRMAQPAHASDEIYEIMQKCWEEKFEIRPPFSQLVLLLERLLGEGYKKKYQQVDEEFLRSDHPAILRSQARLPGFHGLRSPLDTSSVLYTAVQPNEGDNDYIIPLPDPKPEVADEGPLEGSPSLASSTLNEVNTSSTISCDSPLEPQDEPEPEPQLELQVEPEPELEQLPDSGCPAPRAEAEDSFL

[4] = tested on: GBM cell lines; experiment: cells; format: cell-based; settings: Homo sapiens, 72 h
[5] = clinical; settings: human, in vivo, po, 50 mg once daily
[6] = 5 patients with GBM
[7] = tested on: PTM signatures; parameters: species or system human; settings: in vivo
[8] = tested on: 398 cancer cell lines; settings: read-out: Geometric mean of the IC50, ref https://www.cancerrxgene.org/compound/Sunitinib/5/overview/ic50; cited from earlier work
[9] = tested on: recurrent GBM; settings: sunitinib-treated patients with a recurrent GBM; cited from earlier work
[10] = format: in vivo, human; settings: all patients, last dose in the morning on the day of surgery

PDGFRA, sequence (P16234 24-1089): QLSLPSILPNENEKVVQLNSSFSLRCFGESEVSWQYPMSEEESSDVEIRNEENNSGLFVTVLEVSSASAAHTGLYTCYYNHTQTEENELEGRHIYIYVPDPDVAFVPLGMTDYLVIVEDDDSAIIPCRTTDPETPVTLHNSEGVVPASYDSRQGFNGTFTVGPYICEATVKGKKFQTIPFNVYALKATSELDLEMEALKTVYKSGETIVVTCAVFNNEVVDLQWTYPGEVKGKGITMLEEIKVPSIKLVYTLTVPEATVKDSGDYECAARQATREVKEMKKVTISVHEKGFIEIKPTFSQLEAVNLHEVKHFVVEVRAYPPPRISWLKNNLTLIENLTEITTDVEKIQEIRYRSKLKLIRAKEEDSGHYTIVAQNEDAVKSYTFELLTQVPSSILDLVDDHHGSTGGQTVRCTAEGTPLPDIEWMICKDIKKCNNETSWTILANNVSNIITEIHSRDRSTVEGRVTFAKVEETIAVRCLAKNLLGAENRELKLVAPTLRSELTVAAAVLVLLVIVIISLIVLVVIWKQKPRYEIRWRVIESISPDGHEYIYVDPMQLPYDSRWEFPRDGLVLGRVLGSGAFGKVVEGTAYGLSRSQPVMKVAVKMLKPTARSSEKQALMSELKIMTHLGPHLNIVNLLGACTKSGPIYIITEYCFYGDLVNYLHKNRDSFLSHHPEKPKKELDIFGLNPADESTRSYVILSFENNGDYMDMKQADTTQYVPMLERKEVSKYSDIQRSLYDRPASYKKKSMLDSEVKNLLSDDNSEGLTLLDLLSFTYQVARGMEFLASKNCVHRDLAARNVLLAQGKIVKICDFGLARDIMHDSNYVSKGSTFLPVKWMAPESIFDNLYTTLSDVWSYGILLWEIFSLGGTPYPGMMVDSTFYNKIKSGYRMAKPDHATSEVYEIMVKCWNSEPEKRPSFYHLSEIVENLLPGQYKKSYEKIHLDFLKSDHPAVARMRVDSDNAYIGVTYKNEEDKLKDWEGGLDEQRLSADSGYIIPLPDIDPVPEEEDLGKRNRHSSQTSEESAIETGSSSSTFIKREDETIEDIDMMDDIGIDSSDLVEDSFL

CCN(CC)CCNC(=O)c1c(C)[nH]c(/C=C2\C(=O)Nc3ccc(F)cc32)c1C [sunitinib]
Kinase activity of PDGFRA (INKA), sunitinib-treated versus control [1]: low and not significantly different between the groups
Number of significantly downregulated phosphopeptides [2]: 23
Number of significantly upregulated phosphopeptides [2]: 108
Kinase activity of PDGFRB (INKA), sunitinib-treated versus control [3]: low and not significantly different between the groups
pIC50 ([4]; read-out: Median IC50 in GBM cell lines): 5.27
pIC50 ([4]; read-out: Range of IC50 in GBM cell lines): 5.07 to 5.52
Kp [5]: 10
concentration at 11 days [5]: 111 nM
concentration at 12 days [5]: 255 nM
concentration at 13 days [5]: 479 nM
concentration at 14 days [5]: 105 nM
concentration at 18 days [5]: 194 nM
Relation between sunitinib tumor accumulation and use of dexamethasone and anticonvulsants [6]: No relation
Moderately significant enriched signatures (PTM-SEA) [7]: Two moderately significant NetPath derived signatures
Strongly significantly enriched phosphosite signatures (PTM-SEA) [7]: three strongly significantly enriched phosphosite signatures
pIC50 [8]: 4.94
Tumor response and clinical benefit [9]: no tumor response nor clinical benefit
Perioperative complications of tumor resection after preoperative treatment [10]: without perioperative complications
